Laboratory results as given in patent publication US20260028332A1, “POLYMORPHIC FORM OF GLP-1R AGONIST, PREPARATION METHOD THEREFOR AND USE THEREOF” (MINDRANK THERAPEUTICS (SUZHOU) NEW DRUG RESEARCH AND …, priority 2022, published 2026).
Values after ≈ are worked out from the molar mass of the structure shown.

Key:
Assay type in all cases: physicochemical
[1] = Solid state stability study of polymorph (purity by HPLC and crystal form change after 7 days storage); details: for purity change, long-term storage condition: 25° C./60% RH; for purity change, long-term storage condition / purity change, accelerated condition / purity change, high-temperature condition: 7 days; for purity change, high-temperature condition: 60° C., RH<30%; for crystal form change after storage: 7 days in long-term storage, accelerated and high-temperature conditions; for overall solid state stability: 7 days storage study, conclusion
Procedure: Crystal form 2A of compound II was preserved in long-term storage (25° C./60% RH), accelerated (40° C./75% RH), and high-temperature (60° C., RH<30%) conditions for 7 days, and tested for purity and crystal form change by HPLC, so as to examine the stability of the solids.

[2] = Equilibrium solubility study of polymorph in biological media (supernatant concentration; residual solid by XRPD); details: for Whether the crystal form is changed: residual solid by XRPD after 24 h at 37±2° C.; for solubility thermodynamic at 24 h: 37 °C, thermodynamic from solid, suspension ~10 mg/mL, 37±2° C.
[3] = Hygroscopic behavior test by dynamic vapor sorption (DVS); details: for solid form change after DVS / hygroscopicity / Sample weight change at 80% RH (%): 25° C.; for solid form change after DVS: 0-90% RH; for hygroscopicity: 0-90% RH adsorption curve, at 80% RH; for Whether the crystal form is changed: after DVS test at 25° C.
Text: The experimental method for characterizing an acid salt or a base salt of compound III by dynamic vapor sorption (DVS) was as follows: A small amount of a powder of a polymorph of compound III was taken and placed into a precise sample tray that matches the instrument. After the sample was loaded, the sample tray was sent into the instrument for analysis. In the present disclosure, the instrument model used in the dynamic vapor sorption analysis was Intrinsic PLUS; the experimental parameter was set as follows: a constant temperature of 25° C. was set; the mass percent change rate per unit time (dm/dt)=0.02%/min was used as a criterion for determining that a balance is achieved; the program humidity change cycle was set as follows: the initial relative humidity was 0%, and the endpoint relative humidity was 90%.
The DVS plot of the amorphous solid of the compound is shown in FIG. 67, and the DVS plot of crystal form D of the compound is shown in FIG. 68 The results are shown in the table below
The inventors assessed the stability risk of samples under varying humidity at 25° C. using the dynamic vapor sorption method and conducted the DVS test on the representative crystal form 2A of compound II to evaluate the hygroscopicity of the crystal form of the compound.

[4] = Solid state stability study of polymorph (purity by HPLC and crystal form change after 7 days storage); details: for Purity (%) / Initial purity (%): HPLC; for Initial purity (%): before storage
[5] = Equilibrium solubility study of polymorph in biological media (supernatant concentration; residual solid by XRPD); details: for crystal form change of the solid in FaSSGF: ~10 mg/mL suspension; for crystal form change of the solid in FaSSGF / crystal form change of the solid in other media: solid tested by XRPD; for Whether the crystal form is changed: residual solid by XRPD after 24 h at 37±2° C.; for stability in biological media compared with the amorphous solid: H2O; for crystal form change of the solid in other media: media other than FaSSGF (H2O, FaSSIF, FeSSIF)
Procedure: (§1) In the tests, the solids were suspended in corresponding buffers to formulate suspensions (˜10 mg/mL), and the suspensions were mixed at 37±2° C. After 24 h, samples of the suspensions were taken. The supernatant was filtered, and the concentration was determined. The solid was tested by XRPD.
as §1, with “Crystal form 2A of compound II was tested for its equilibrium solubility in water (H2O), fasted state simulated gastric fluid (FaSSGF), fasted state simulated intestinal fluid (FaSSIF), and fed state simulated intestinal fluid (FeSSIF). In” for “In”

[6] = 25° C./60% RH, 7 days (long-term storage), compound I
[7] = 40° C./75% RH, 7 days (accelerated), compound I
[8] = 60° C., 7 days (high-temperature, RH<30%), compound I
[9] = FaSSGF, FaSSIF, FeSSIF, 37±2° C., 24 h
[10] = 25° C./60% RH, 7 days (long-term storage), compound II
[11] = 60° C., 7 days (high-temperature, RH<30%), compound II

| Compound | purity change, long-term storage condition ([1]; HPLC) | purity change, accelerated condition ([1]; 40° C./75% RH, HPLC) | purity change, high-temperature condition ([1]; HPLC) | Whether the crystal form is changed ([2]; H2O, polymorph of compound I) | solid form change after DVS [3] | hygroscopicity [3] | hygroscopicity ([3]; DVS, compound I) | Sample weight change at 80% RH (%) ([3]; DVS, compound I) | Whether the crystal form is changed ([3]; compound I) | Purity (%) [4, 6] [%] | Crystal form change [4, 6] | Purity (%) [4, 7] [%] | Crystal form change [4, 7] | Purity (%) [4, 8] [%] | Crystal form change [4, 8] | Initial purity (%) ([4]; compound I) | crystal form change of the solid in FaSSGF ([5]; FaSSGF, 37±2° C., 24 h) | stability in biological media compared with the amorphous solid [5, 9] | crystal form change of the solid in other media ([5]; 37±2° C., 24 h) | crystal form change after storage [1] | further results |
| --- | --- | --- | --- | --- | --- | --- | --- | --- | --- | --- | --- | --- | --- | --- | --- | --- | --- | --- | --- | --- | --- |
| O=C(O)c1ccc2nc(CN3CCC(Oc4cccc(COc5ccc(Cl)cc5F)n4)CC3)n(C[C@@H]3CCO3)c2c1 [amorphous solid of compound I, (S)-2-((4-((6-((4-chloro-2-fluorophenoxy)methyl)pyridin-2-yl)oxy)piperidin-1-yl)methyl)-1-(oxetan-2-ylmethyl)-1/-benzo[d]imidazole-6-carboxylic acid] | no significant purity changes | significant degradation | significant degradation | No | no solid form changes were observed | slightly hygroscopic | Slightly hygroscopic | 0.90 | No | 98.94 | No | 95.86 | No | 89.15 | No | 98.98 | – | – | – | – | – |
| N#Cc1ccc(OCc2cccc(OC3CCN(Cc4nc5ccc(C(=O)O)cc5n4C[C@@H]4CCO4)CC3)n2)c(F)c1 [crystal form 2A of compound II, (S)-2-((4-((6-((4-cyano-2-fluorophenoxy)methyl)pyridin-2-yl)oxy)piperidin-1-yl)methyl)-1-(oxetan-2-ylmethyl)-1H-benzo[d]imidazole-6-carboxylic acid] | no significant purity changes | no significant purity changes | no significant purity changes | – | no solid form changes were observed | slightly hygroscopic | – | – | – | – | – | – | – | – | – | – | converted into a hydrochloride salt | significantly superior | no crystal form changes | no significant purity changes or significant crystal form changes | Whether the crystal form is changed ([5]; FaSSIF, polymorph of compound II): No; Whether the crystal form is changed ([5]; FeSSIF, polymorph of compound II): No; solubility thermodynamic at 24 h ([5]; fasted state simulated gastric fluid (FaSSGF), 37 °C, fassgf or other biorelevant, thermodynamic from solid, FaSSGF, suspension ~10 mg/mL, 37±2° C., 24 h, polymorph of compound II): 180 µg/mL (≈ 315 µM); Purity (%) ([1]; 40° C./75% RH, 7 days (accelerated), HPLC, compound II): 97.38%; Crystal form change ([1]; 40° C./75% RH, 7 days (accelerated), compound II): No; overall solid state stability [1]: good stability; Whether the crystal form is changed ([2]; H2O, polymorph of compound II): No; solubility thermodynamic at 24 h ([2]; fasted state simulated intestinal fluid (FaSSIF), FaSSIF, polymorph of compound II): 40 µg/mL (≈ 70 µM); solubility thermodynamic at 24 h ([2]; fed state simulated intestinal fluid (FeSSIF), FeSSIF, polymorph of compound II): 190 µg/mL (≈ 332 µM); solubility thermodynamic at 24 h ([2]; water, H2O, polymorph of compound II): 90 µg/mL (≈ 157 µM); hygroscopicity ([3]; DVS, compound II): Slightly hygroscopic; Sample weight change at 80% RH (%) ([3]; DVS, compound II): 0.71%; Whether the crystal form is changed ([3]; compound II): No; Purity (%) [4, 10]: 97.65%; Crystal form change [4, 10]: No; Purity (%) [4, 11]: 97.63%; Crystal form change [4, 11]: No; Initial purity (%) ([4]; compound II): 97.71% |
| O=C(O)c1ccc2nc(CN3CCC(Oc4cccc(COc5ccc(Cl)cc5F)n4)CC3)n(C[C@@H]3CCO3)c2c1 [crystal form D of compound I, (S)-2-((4-((6-((4-chloro-2-fluorophenoxy)methyl)pyridin-2-yl)oxy)piperidin-I-yl)methyl)-1-(oxetan-2-ylmethyl)-1H-benzo[d]imidazole-6-carboxylic acid] | no significant purity changes | slightly reduced purities | slightly reduced purities | No | no solid form changes were observed | slightly hygroscopic | Slightly hygroscopic | 1.08 | No | 99.10 | No | 98.98 | No | 98.61 | No | 99.15 | converted into a hydrochloride salt | significantly superior | no crystal form change was observed | no significant crystal form changes | solubility in the FaSSIF system ([5]; FaSSIF, 37±2° C., 24 h, compared with amorphous solid): significantly improved solubility; overall solid state stability [1]: significantly superior; Whether the crystal form is changed ([2]; FaSSIF, polymorph of compound I): No; Whether the crystal form is changed ([2]; FeSSIF, polymorph of compound I): No |
